Experimental data from ChEMBL document CHEMBL5316357, “Discovery of Linvencorvir (RG7907), a Hepatitis B Virus Core Protein Allosteric Modulator, for the Treatment of Chronic HBV Infection” (J Med Chem, 2023).
Calls of active or inactive are those of the source. The rule behind the calls is not given here.

What was measured:
[1] = tested on: Hepatitis B virus; assay: Antiviral activity against AAV-Hepatitis B virus infected in C57BL/6 mouse assessed as reduction of serum HBV DNA level at 0.03 mg/kg,po qd for 8 weeks by quantitative real-time PCR analysis; assay type: functional, organism-based
[2] = tested on: Hepatitis B virus; assay: Antiviral activity against AAV-Hepatitis B virus infected in C57BL/6 mouse assessed as reduction of serum HBsAg level at 0.03 mg/kg,po qd for 8 weeks by chemiluminescence immunoassay; assay type: functional, organism-based
[3] = tested on: Hepatitis B virus; assay: Antiviral activity against AAV-Hepatitis B virus infected in C57BL/6 mouse assessed as reduction of serum HBeAg level at 0.03 mg/kg,po qd for 8 weeks by chemiluminescence immunoassay; assay type: functional, organism-based
[4] = tested on: Hepatitis B virus; assay: Antiviral activity against HBV stably transfected in human HepG2.2.15 cells assessed as reduction of HBV DNA replication incubated for 5 days by q-PCR analysis; assay type: functional, organism-based; conditions: HepG2 2.2.15, 120 h
[5] = Cytotoxicity against human HepDE19 cells assessed as reduction in cell viability incubated for 5 days by CCK-8 assay; assay type: functional; conditions: HepDE19, 120 h, time 5 day
[6] = Induction of CYP3A4 mRNA expression level in human hepatocytes at 10 uM incubated for 24 hrs by q-PCR analysis; assay type: ADME, cell-based, Hepatocyte
[7] = Clearance in human liver microsomes at 1 uM measured upto 30 mins in presence of NADPH by LC-MS/MS analysis; assay type: ADME, Microsome
[8] = target: Voltage-gated inwardly rectifying potassium channel KCNH2 (Homo sapiens, UniProt Q12809); assay: (§1) Inhibition of hERG stably expressed in CHO cells by whole-cell voltage-clamp assay; assay type: toxicity, cell-based
[9] = target: hERG (Homo sapiens, UniProt Q12809); assay: as §1; assay type: toxicity, cell-based; conditions: human, CHO cells stably expressing hERG
[10] = Half life in rat plasma at 1 mg/kg,iv; assay type: ADME, organism-based
[11] = Half life in mouse plasma at 1 mg/kg,iv; assay type: ADME, organism-based
[12] = Volume of distribution at steady state in rat plasma at 1 mg/kg,iv; assay type: ADME, organism-based; conditions: read-out: Vdss
[13] = Volume of distribution at steady state in mouse plasma at 1 mg/kg,iv; assay type: ADME, organism-based; conditions: read-out: Vdss
[14] = Clearance in rat plasma at 1 mg/kg,iv; assay type: ADME, organism-based
[15] = Clearance in mouse plasma at 1 mg/kg,iv; assay type: ADME, organism-based
[16] = AUC (0-infinity) in rat plasma at 1 mg/kg,iv; assay type: ADME, organism-based; set-up: dose 1 mg/kg, route iv
[17] = AUC (0-infinity) in mouse plasma at 1 mg/kg,iv; assay type: ADME, organism-based; set-up: dose 1 mg/kg, route iv; conditions: in vivo
[18] = AUC (0-infinity) in rat plasma at 3 mg/kg,po; assay type: ADME, organism-based; set-up: dose 3 mg/kg, route po
[19] = AUC (0-infinity) in mouse plasma at 3 mg/kg,po; assay type: ADME, organism-based; set-up: dose 3 mg/kg, route po; conditions: in vivo
[20] = Oral bioavailability in rat plasma at 3 mg/kg; assay type: ADME, organism-based
[21] = Oral bioavailability in mouse plasma at 3 mg/kg; assay type: ADME, organism-based; conditions: in vivo
[22] = AUC (0-infinity) in mouse liver at 3 mg/kg,po; assay type: ADME, organism-based; set-up: dose 3 mg/kg, route po
[23] = Ratio of AUC (0 to infinity) in liver to plasma of mouse at 3 mg/kg,po; assay type: ADME, organism-based; conditions: read-out: Ratio AUC
[24] = Clearance in human hepatocyte at 2 uM measured upto 120 mins by LC-MS/MS analysis; assay type: ADME, cell-based; conditions: hepatocytes
[25] = Clearance in rat hepatocyte at 2 uM measured upto 120 mins by LC-MS/MS analysis; assay type: ADME, cell-based; conditions: hepatocytes
[26] = Octanol-water partition coefficient, logD of the compound at pH 7.4; assay type: physicochemical
[27] = tested on: Hepatitis B virus; assay: Antiviral activity against AAV-Hepatitis B virus infected in C57BL/6 mouse assessed as reduction of serum HBV DNA level at 6 to 20 mg/kg,po qd for 8 weeks by quantitative real-time PCR analysis; assay type: functional, organism-based; conditions: dose 6-20 mg/kg
[28] = tested on: Hepatitis B virus; assay: Antiviral activity against AAV-Hepatitis B virus infected in C57BL/6 mouse assessed as reduction of serum HBsAg level at 6 to 20 mg/kg,po qd for 8 weeks by chemiluminescence immunoassay; assay type: functional, organism-based; conditions: dose 6-20 mg/kg
[29] = tested on: Hepatitis B virus; assay: Antiviral activity against AAV-Hepatitis B virus infected in C57BL/6 mouse assessed as reduction of serum HBeAg level at 6 to 20 mg/kg,po qd for 8 weeks by chemiluminescence immunoassay; assay type: functional, organism-based; conditions: dose 6-20 mg/kg

Sequence of Voltage-gated inwardly rectifying potassium channel KCNH2 (Q12809 whole entry): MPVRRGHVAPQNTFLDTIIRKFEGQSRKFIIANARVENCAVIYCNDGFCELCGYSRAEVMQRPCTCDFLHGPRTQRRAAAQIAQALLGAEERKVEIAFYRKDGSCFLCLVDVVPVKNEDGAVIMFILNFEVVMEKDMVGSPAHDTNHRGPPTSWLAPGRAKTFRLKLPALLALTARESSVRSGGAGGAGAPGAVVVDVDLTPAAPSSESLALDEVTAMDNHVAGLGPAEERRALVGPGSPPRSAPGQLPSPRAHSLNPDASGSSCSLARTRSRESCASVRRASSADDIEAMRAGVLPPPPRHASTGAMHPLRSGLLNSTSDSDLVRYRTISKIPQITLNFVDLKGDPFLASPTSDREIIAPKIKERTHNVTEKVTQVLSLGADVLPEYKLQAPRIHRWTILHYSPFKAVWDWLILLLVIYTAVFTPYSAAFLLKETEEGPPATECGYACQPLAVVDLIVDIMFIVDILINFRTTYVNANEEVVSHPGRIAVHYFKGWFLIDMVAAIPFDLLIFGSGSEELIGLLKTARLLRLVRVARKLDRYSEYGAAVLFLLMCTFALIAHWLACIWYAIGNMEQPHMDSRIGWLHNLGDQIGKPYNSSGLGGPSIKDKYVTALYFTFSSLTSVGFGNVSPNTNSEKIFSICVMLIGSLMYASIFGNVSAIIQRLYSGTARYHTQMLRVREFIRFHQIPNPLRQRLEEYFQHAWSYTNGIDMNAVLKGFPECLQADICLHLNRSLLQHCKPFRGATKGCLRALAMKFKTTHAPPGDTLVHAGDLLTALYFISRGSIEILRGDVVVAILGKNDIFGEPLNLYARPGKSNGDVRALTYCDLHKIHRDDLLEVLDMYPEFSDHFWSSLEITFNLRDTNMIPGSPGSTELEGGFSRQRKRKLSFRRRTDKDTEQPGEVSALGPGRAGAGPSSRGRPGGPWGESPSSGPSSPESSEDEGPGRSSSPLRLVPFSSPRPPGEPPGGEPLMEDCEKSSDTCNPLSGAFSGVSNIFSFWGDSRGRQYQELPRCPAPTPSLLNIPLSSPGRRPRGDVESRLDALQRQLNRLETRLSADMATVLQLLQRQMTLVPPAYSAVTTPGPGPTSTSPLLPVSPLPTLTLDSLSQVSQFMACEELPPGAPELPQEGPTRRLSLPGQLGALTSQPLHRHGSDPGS
Sequence of hERG (Q12809 whole entry): as above

Structure (SMILES) | EC50 [4] [nM] | CC50 [5] [nM] | Activity [6] [%] | CLhep predicted at 1 µM [7] [mL/min/kg] | IC50 [8] [nM] | IC20 [9] [nM] | half-life [10] [h] | half-life [11] [h] | Vd [12] [L/kg] | Vd [13] [L/kg] | clearance [14] [mL/min/kg] | clearance [15] [mL/min/kg] | AUC [17] [ng·h/mL] | AUC [19] [ng·h/mL] | F [21] [%] | AUC(0-inf) [22] [ng·h/mL] | Kp [23] | other results
C=C1[C@H](CO)[C@@H](O)C[C@@H]1n1cnc2c(=O)[nH]c(N)nc21 | – | – | – | – | – | – | – | – | – | – | – | – | – | – | – | – | – | Activity [1]: Active; Activity [2]: inactive; Activity [3]: inactive
CCOC(=O)C1=C(CN2CCN3C(=O)N(CC(C)(C)C(=O)O)C[C@@H]3C2)NC(c2nccs2)=N[C@H]1c1cccc(F)c1Cl | 3 | > 100000 | 1 | 0.4 | > 20000 | > 10000 | 1.8 | 0.62 | 4.8 | 1.3 | 65 | 35 | 471 | 154 | 33 | 3760 | 24 | AUC(0-inf) ([16]; plasma): 257 ng·h/mL; AUC(0-inf) ([18]; plasma): 26 ng·h/mL; bioavailability ([20]; plasma): 10%; CLhep predicted at 2 µM [24]: 7 mL/min/kg; CLhep predicted at 2 µM [25]: 17 mL/min/kg; logD [26]: 1.69
CCOC(=O)C1=C(CN2C[C@H]3CN(C(C)(C)C)C(=O)N3C[C@@H]2C(=O)O)NC(c2nccs2)=N[C@H]1c1ccc(F)cc1Cl | 1 | > 100000 | 4 | 5 | 10000 | 2200 | 1.5 | 0.5 | 5.4 | 5.2 | 87 | 248 | 65 | 0.4 | 0.7 | 279 | 607 | AUC ([16]; in vivo): 188 ng·h/mL; AUC ([18]; in vivo): 2.7 ng·h/mL; F ([20]; in vivo, po, 3 mg/kg): 1.4%
CCOC(=O)C1=C(CN2CCN3C(=O)N(CC(C)(C)C(=O)O)C[C@@H]3C2)N=C(c2nccs2)N[C@H]1c1cccc(F)c1C [LINVENCORVIR] | 6 | > 100000 | – | – | – | – | – | – | – | – | – | – | – | – | – | – | – | Activity [27]: Dose-Dependent Effect; Activity [28]: Dose-Dependent Effect; Activity [29]: Dose-Dependent Effect
